# Test results from US20050191282A1, “Method of cryopreserving pancreatic islet cells” (priority 2004, published 2005).
# What was measured:
# isolated rat islets [1] = assay: Recovery of intact islets after cryopreservation and thawing (islet counting after Dithizone staining); type: cell-based; design: key: Severe = +++; Mild = +; details: 2M DMSO, 3M glycerol, 5% PEG or 10% PVP
# Description: (§1) The present invention is based on the hypothesis that the low molecular weight (MW) compounds, DMSO and glycerol, permeate the cell and interact hydrophobically with intracellular proteins thereby perturbing the cyto-skeletal architecture of frozen cells, and diminishing islet cell integrity and function. Isolated rat islets were cultured overnight (16-24 hr) at 37° C., in RPMI medium supplemented with 10% fetal calf serum and 1% mixture of Penicillin/Streptomycin. Using a programmable temperature controller, samples of pre-counted islets were then frozen under liquid nitrogen, in the presence of either 2M DMSO (MW=0.078 kD), 3M glycerol (MW=0.092 kD), 5% polyethylene glycol (PEG, MW=20 kD), or 10% polyvinylpyrrolidone (PVP, MW=40 kD), and stored at −80° C. for 1 week. Following thawing, intact islet recovery was determined by islet counting after Dithizone staining. Islet function was assessed by determination of glucose-stimulated insulin secretion in perifusion experiments with Krebs-Ringer bicarbonate buffer, pH 7.4, containing either basal (3.3 mM) or high (16.7 mM) glucose concentrations. After thawing samples of frozen islets, the mean±SEM % intact islet recovery was higher with PVP compared to DMSO (82±4.6 versus 62.7±3.1% respectively, p<0.005, n=9). […]
# isolated rat islets [2] = assay: Glucose-stimulated insulin secretion by perifused islets after cryopreservation; type: cell-based
# Description: FIG. 2 graphs glucose stimulation of insulin secretion in islets cryopreserved with different cryoprotectants. After one week of cryopreservation, islets were thawed and cultured overnight before being tested for response to 16.7 mM glucose stimulation. The 16.7 mM glucose stimulated insulin secretion was assessed by normalizing data as percent basal insulin secretion for each group of islets. Data represent mean±SEM.
# as §1, with “Isolated rat islets were cultured overnight (16-24 hr) at 37° C., in RPMI medium supplemented with 10% fetal calf serum and 1% mixture of Penicillin/Streptomycin.” left out, “concentrations.” for “concentrations. After thawing samples of frozen islets, the mean±SEM % intact islet recovery was higher with PVP compared to DMSO (82±4.6 versus 62.7±3.1% respectively, p<0.005, n=9).”
# islets = details: DMSO as cryoprotectant, compared to freshly isolated islets; cited from earlier work
Structure (SMILES),Fragment (fragmentation of islets after thawing) (isolated rat islets [1]),function of cryopreserved islets compared to freshly isolated islets (isolated rat islets [2]),loss in the number and function of islets after thawing (islets)
"C[S+](C)[O-] [DMSO, Dimethylsulfoxide]",+++,impaired,30-50%
"OCC(O)CO [GLY, glycerol]",+++,impaired,–
